Assay results reported in patent EP0326331B1, “Substituted quinolines and cinnolines” (Dow AgroSciences LLC, priority 1988, dated 1989).

Legend:
Assay type in all cases: in vivo
[1] = system: Puccinia recondita tritici (leaf rust); assay: Test 1 greenhouse foliar spray screen, leaf rust on wheat; conditions: Puccinia recondita, foliar, Test 1, foliar spray on wheat; disease control rating at 400 ppm / 100 ppm
corn rootworm = assay: Mite/insect screen, CRW; conditions: percent mortality, read-out: CRW RESULTS %; for mortality at 12 ppm: CRW rate 12.00 ppm; for mortality at 24 ppm: CRW rate 24.00 ppm
In short: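 Read-out: % mortality after standard exposure. Formulation: acetone/alcohol (50:50) with emulsifiers at 23 g and 13 g per liter, water-diluted to final test levels.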

[2] = system: Venturia inaequalis (apple scab); assay: Test 1 greenhouse foliar spray screen, apple scab on apple seedling; conditions: Venturia inaequalis; Test 1, foliar spray on apple seedling; disease control rating at 400 ppm / 100 ppm; read-out: APPL SCAB
[3] = system: Septoria tritici (leaf blotch); assay: Test 1 greenhouse foliar spray screen, leaf blotch on wheat; conditions: Zymoseptoria tritici; Test 1, foliar spray on wheat; disease control rating at 400 ppm / 100 ppm; read-out: LEAF BLOT
[4] = system: melon aphids (Aphis gossypii Glover); assay: Mite/insect screen, MA; conditions: Aphis gossypii, foliar, percent mortality, foliar spray on squash, read-out: MA RESULTS %; for mortality at 200 ppm: rate 200 ppm; for mortality at 400 ppm: rate 400 ppm
In short: (§1)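 Read-out: percent mortality after standard exposure periods. Test solutions were water dilutions of compound dissolved in acetone/alcohol (50:50) with emulsifier blends; leaves were sprayed to runoff on both surfaces and air-dried for one hour before exposure.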

[5] = system: Erysiphe graminis tritici (powdery mildew); assay: Test 1 greenhouse foliar spray screen, powdery mildew on wheat; conditions: Blumeria graminis, foliar, Test 1, foliar spray on wheat; disease control rating at 400 ppm / 100 ppm; read-out: POWD MDEW
[6] = system: Botrytis cinerea (gray mold); assay: Test 1 greenhouse foliar spray screen, gray mold on grape berries; conditions: Botrytis cinerea, foliar; Test 1, spray on grape berries; disease control rating at 400 ppm / 100 ppm
[7] = system: Pyricularia oryzae (rice blast); assay: whole plant or invertebrate; conditions: Pyricularia oryzae, foliar, read-out: RICE BLAST, Test 1, foliar spray on rice; disease control rating at 400 ppm / 100 ppm
[8] = system: Pseudoperonospora cubensis (downy mildew); assay: Test 1 greenhouse foliar spray screen, downy mildew on squash; conditions: Pseudoperonospora cubensis, foliar, Test 1, foliar spray on squash; disease control rating at 400 ppm / 100 ppm; read-out: DOWN MDEW
[9] = system: Cercospora beticola (leaf spot); assay: Test 1 greenhouse foliar spray screen, leaf spot on sugar beet; conditions: Cercospora beticola; Test 1, foliar spray on sugar beet; disease control rating at 400 ppm / 100 ppm
[10] = system: southern armyworm (Spodopetra eridania Cramer); assay: Mite/insect screen, SAW; conditions: percent mortality, foliar spray on squash; for mortality at 200 ppm / mortality at 400 ppm: Spodoptera eridania, foliar, read-out: SAW RESULTS %; for mortality at 200 ppm: rate 200 ppm
In short: as §1

[11] = system: Twospotted spider mites (Tetranychus urticae Koch); assay: Mite/insect screen, SM; conditions: for mortality at 200 ppm / mortality at 400 ppm: Tetranychus urticae, foliar, read-out: SM RESULTS %; for mortality at 200 ppm: rate 200 ppm; for activity as miticides: summary statement in the description
In short: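 Foliar spray to runoff (10 psi), 1 h drying; aqueous dilutions from acetone/alcohol emulsifier stock. Mortality (%) after standard exposure.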

[12] = percent mortality, foliar spray on squash
[13] = percent mortality, rate 400 ppm, foliar spray on squash

SMILES | pest or weed control at 400 ppm [1] [%] | mortality at 12 ppm (corn rootworm) [%] | pest or weed control at 400 ppm [2] [%] | pest or weed control at 400 ppm [3] [%] | mortality at 200 ppm [4] [%] | pest or weed control at 400 ppm [5] [%] | pest or weed control at 400 ppm [6] [%] | pest or weed control at 400 ppm [7] [%] | pest or weed control at 400 ppm [8] [%] | pest or weed control at 400 ppm [9] [%] | mortality at 200 ppm [10] [%] | mortality at 200 ppm [11, 12] [%] | mortality at 24 ppm (corn rootworm) [%] | mortality at 400 ppm [4] [%] | mortality at 400 ppm ([10]; rate 400 ppm) [%] | mortality at 400 ppm [11, 13] [%] | activity as miticides [11] | SAW RESULTS % ([10]; rate 400 ppm) [%] | SM RESULTS % [11, 13] [%]
Clc1ccc(CCOc2ccnc3ccccc23)cc1 [Example 211, 4-[2-(4-chlorophenyl)ethoxy]quinoline] | 90 to 100 | 0 | 0 to 19 | 90 to 100 | 40 | 90 to 100 | 0 to 19 | 90 to 100 | 90 to 100 | 90 to 100 | 0 | 10 |  |  |  |  |  |  | 
CC(Cc1ccccc1)Oc1ccnc2ccccc12 (stereo not shown) [Example 213, 4-(1-methyl-2-phenylethoxy)quinoline] | 90 to 100 | 0 | 20 to 89 | 20 to 89 | 0 | 20 to 89 | 0 to 19 | 90 to 100 | 90 to 100 | 0 to 19 | 0 | 0 |  |  |  |  |  |  | 
CC(COc1ccnc2c(F)cccc12)c1ccccc1 (stereo not shown) [Example 220, 4-(2-phenylpropoxy)-8-fluoroquinoline] | 90 to 100 | 0 | 20 to 89 | 0 to 19 | 0 | 90 to 100 | 0 to 19 | 20 to 89 | 90 to 100 | 0 to 19 | 0 | 0 | 0 | 0 | 0 | 0 |  |  | 
Fc1ccc(CCOc2ccnc3c(F)cccc23)cc1 [Example 222, 8-fluoro-4-[2-(4-fluorophenyl)ethoxy]quinoline] | 90 to 100 | 0 | 90 to 100 | 90 to 100 | 50 | 20 to 89 | 0 to 19 | 20 to 89 | 90 to 100 | 20 to 89 | 0 | 0 | 0 | 40 | 0 | 0 |  |  | 
COc1ccccc1CCOc1ccnc2ccccc12 [Example 229, 4-[2-(2-methoxyphenyl)ethoxy]quinoline] | 90 to 100 | 0 | 0 to 19 | 20 to 89 | 50 | 20 to 89 | 0 to 19 | 90 to 100 | 90 to 100 | 0 to 19 | 0 | 50 | 0 | 0 | 0 | 0 |  |  | 
Clc1ccc2c(OCCc3ccc(-c4ccccc4)cc3)ccnc2c1 [Example 230, 7-chloro-4-[2-(1,1'-biphenyl)-4-yl-ethoxy]quinoline] | 20 to 89 | 0 | 0 to 19 | 0 to 19 | 90 | 90 to 100 | 0 to 19 | 0 to 19 | 0 to 19 | 0 to 19 | 0 | 100 | 0 | 0 | 0 | 80 | particularly excellent activity |  | 
Fc1ccc2c(OCCc3ccc(-c4ccccc4)cc3)ccnc2c1 [Example 233, 4-[2-(1,1'-biphenyl)-4-ylethoxy]-7-fluoroquinoline] | 90 to 100 | 0 | 0 to 19 | 20 to 89 | 50 | 20 to 89 | 0 to 19 | 90 to 100 | 20 to 89 | 0 to 19 | 0 | 100 | 0 | 80 | 0 | 80 | particularly excellent activity |  | 
Fc1ccc2c(OCCc3ccc(Cl)cc3)ccnc2c1 [Example 234, 4-[2-(4-chlorophenyl)ethoxy]-7-fluoroquinoline] | 90 to 100 | 0 | 0 to 19 | 20 to 89 | 50 | 20 to 89 | 0 to 19 | 20 to 89 | 20 to 89 | 20 to 89 | 60 | 50 | 0 | 100 | 0 | 30 |  |  | 
Cc1ccc(CCOc2ccnc3cc(F)ccc23)cc1 [Example 235, 7-fluoro-4-[2-(4-methylphenyl)ethoxy]quinoline] | 90 to 100 | 0 | 0 to 19 | 20 to 89 | 0 | 20 to 89 | 0 to 19 | 90 to 100 | 20 to 89 | 0 to 19 | 80 | 0 | 0 | 50 | 0 | 0 |  |  | 
Fc1ccc(CCOc2ccnc3cc(Cl)ccc23)cc1 [Example 236, 7-chloro-4-[2-(4-fluorophenyl)ethoxy]quinoline] | 20 to 89 | 0 | 0 to 19 | 0 to 19 | 0 | 90 to 100 | 0 to 19 | 0 to 19 | 0 to 19 | 0 to 19 | 0 | 0 |  |  | 0 | 0 |  | 0 | 0
Fc1cccc2c(OCCc3cccc4ccccc34)ccnc12 [Example 244, 8-fluoro-4-[2-(1-naphthyl)ethoxy]quinoline] | 20 to 89 | 0 | 0 to 19 | 20 to 89 | 40 | 20 to 89 | 0 to 19 | 90 to 100 | 20 to 89 | 0 to 19 | 0 | 0 |  |  |  |  |  |  | 
c1csc(CCOc2ccnc3ccccc23)c1 [Example 245, 4-[2-(2-thienyl)ethoxy]quinoline] | 90 to 100 | 0 | 0 to 19 | 0 to 19 | 0 | 20 to 89 | 0 to 19 | 90 to 100 | 90 to 100 | 0 to 19 | 0 | 0 |  |  |  |  |  |  | 
